Test results as given in patent publication US4108991A, “N-aminosulfenyl derivatives of aldicarb” (priority 1976, dated 1978).

What was measured:
[1] = system: Granary Weevil; test: Initial contact activity, granary weevil; format: in vivo; conditions: Sitophilus granarius, 48 h, initial, GW, 48 hours, read-out: Percent Kill
[2] = system: Two-spotted spider mite; test: Systemic activity, soil-watering, two-spotted spider mite; format: in vivo, Tetranychus urticae Koch; conditions: Tetranychus urticae, 48 h, systemic, SM, read-out: Percent Kill
How it was run: (§1)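 Compound in acetone/water with surfactant, diluted to target concentrations; 25 ml poured onto soil of potted host plants without touching foliage. After three days for translocation, leaves infested with beetle or armyworm larvae, aphids or mites; living and dead counted two days later.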

[3] = system: Two-spotted spider mite; test: Initial contact activity, leaf dip, two-spotted spider mite; format: in vivo, Tetranychus urticae Koch; conditions: Tetranychus urticae, foliar, 48 h, initial, SM, 48 hours, read-out: Percent Kill
[4] = system: Confused flour beetle; test: Initial contact activity, sprayed dishes, confused flour beetle; format: in vivo, Tribolium confusum duVal; conditions: Tribolium confusum, initial, FB, 48 hours, read-out: Percent Kill
How it was run: (§2)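 Dilutions from a 1250 ppm acetone–water stock (surfactant added). Leaf dip, pinto bean, immature Mexican bean beetle added once dry; spray onto adult plum curculio in glass; confused flour beetle on dried sprayed dishes. 48 h, 80° F/50% RH; % kill counted.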

[5] = system: Plum curculio; test: Residual (7-day) contact activity, plum curculio; format: in vivo, Conotrachelus nenuphar [Herbst]; conditions: Conotrachelus nenuphar, 168 h, residual 7-day, PC, read-out: Percent Kill
How it was run: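 Treated surfaces were dried and weathered under normal light and air for 7 days before organisms were introduced. Southern armyworm and mites on dipped pinto bean leaves; milkweed bug and plum curculio in sprayed glass containers. Percent kill counted after 48 h exposure at 80° F, 50% RH.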

[6] = system: Confused flour beetle; test: Residual (7-day) contact activity, confused flour beetle; format: in vivo, Tribolium confusum duVal; conditions: Tribolium confusum, 168 h, residual 7-day, FB, read-out: Percent Kill
[7] = system: Granary Weevil; test: Residual (7-day) contact activity, granary weevil; format: in vivo; conditions: Sitophilus granarius, 168 h, residual 7-day, GW, read-out: Percent Kill
[8] = system: Milkweed bug; test: Initial contact activity, spray, milkweed bug; format: in vivo, Oncopeltus fasciatus [Dallas]; conditions: Oncopeltus fasciatus, 48 h, initial, MWB, 48 hours, read-out: Percent Kill
How it was run: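 Various active-ingredient concentrations, diluted with water from 1250 ppm. Contact exposure by dip, direct spray or dried residue depending on species; scored as percent kill at 48 h.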

[9] = system: Plum curculio; test: Initial contact activity, spray, plum curculio; format: in vivo, Conotrachelus nenuphar [Herbst]; conditions: Conotrachelus nenuphar, initial, PC, 48 hours, read-out: Percent Kill
How it was run: as §2

[10] = system: Mexican bean beetle; test: Initial contact activity, leaf dip, Mexican bean beetle; format: in vivo, Epilachna varivestis Muls.; conditions: Epilachna varivestis, foliar, 48 h, initial, BB, 48 hours, read-out: Percent Kill
How it was run: as §2

[11] = system: Pea aphid; test: Systemic activity, soil-watering, pea aphid; format: in vivo, Acyrthosiphon pisum [Harris]; conditions: Acyrthosiphon pisum, 48 h, systemic, PA, read-out: Percent Kill
How it was run: as §1

[12] = system: Mexican bean beetle; test: Residual (7-day) contact activity, Mexican bean beetle; format: in vivo, Epilachna varivestis Muls.; conditions: Epilachna varivestis, 168 h, residual 7-day, BB, read-out: Percent Kill
[13] = system: Pea aphid; test: Initial contact activity, leaf dip, pea aphid; format: in vivo, Acyrthosiphon pisum [Harris]; conditions: Acyrthosiphon pisum, foliar, 48 h, initial, PA, 48 hours, read-out: Percent Kill
[14] = system: Southern armyworm; test: Systemic activity, soil-watering, southern armyworm; format: in vivo, Spodoptera eridania [Cram.]; conditions: Spodoptera eridania, 48 h, systemic, AW, read-out: Percent Kill
How it was run: as §1

[15] = system: Pea aphid; test: Residual (7-day) contact activity, pea aphid; format: in vivo, Acyrthosiphon pisum [Harris]; conditions: Acyrthosiphon pisum, 168 h, residual 7-day, PA, read-out: Percent Kill
[16] = system: Mexican bean beetle; test: Systemic activity, soil-watering, Mexican bean beetle; format: in vivo, Epilachna varivestis Muls.; conditions: Epilachna varivestis, 48 h, systemic, BB, read-out: Percent Kill
How it was run: as §1

Work on `CSC(C)(C)C=NOC(=O)N(C)SN(C)Cc1ccccc1` [Example I, 2-methyl-2-(methylthio)propanol O-[(N-benzyl-N-methylaminosulfenyl)(methyl)carbamoyl]oxime] yielded a mortality at 156 ppm ([1]; 156 PPM) of 100%, a mortality at 312 ppm ([1]; 312 PPM) of 100% and a mortality at 1250 ppm ([1]; 1250 PPM) of 100%. For the same molecule, the mortality at 2.5 ppm ([2]; 2.5 PPM) was 0.9%, the mortality at 5 ppm ([2]; 5 PPM) was 2.3% and the mortality at 10 ppm ([2]; 10 PPM) was 4.3%. It also gave a mortality at 10 ppm ([3]; 10 PPM) of 96%, a mortality at 39 ppm ([3]; 39 PPM) of 98% and a mortality at 156 ppm ([3]; 156 PPM) of 100%. The mortality at 1250 ppm ([3]; 1250 PPM) was 100%, the mortality at 156 ppm ([4]; 156 PPM) was 5% and the mortality at 312 ppm ([4]; 312 PPM) was 5%. The mortality at 1250 ppm ([4]; 1250 PPM) was 2.5%, the mortality at 156 ppm ([5]; 156 PPM) was 23% and the mortality at 312 ppm ([5]; 312 PPM) was 43%. The mortality at 1250 ppm ([5]; 1250 PPM) was 20%, the mortality at 312 ppm ([6]; 312 PPM) was 0% and the mortality at 1250 ppm ([6]; 1250 PPM) was 2.6%. For the same molecule, the mortality at 312 ppm ([7]; 312 PPM) was 41%, the mortality at 1250 ppm ([7]; 1250 PPM) was 100% and the mortality at 10 ppm ([8]; 10 PPM) was 5%. It also gave a mortality at 39 ppm ([8]; 39 PPM) of 80%, a mortality at 156 ppm ([8]; 156 PPM) of 100% and a mortality at 1250 ppm ([8]; 1250 PPM) of 100%. The mortality at 10 ppm ([9]; 10 PPM) was 10%, the mortality at 39 ppm ([9]; 39 PPM) was 0% and the mortality at 156 ppm ([9]; 156 PPM) was 0%. The mortality at 1250 ppm ([9]; 1250 PPM) was 45%, the mortality at 156 ppm ([10]; 156 PPM) was 82% and the mortality at 312 ppm ([10]; 312 PPM) was 94%. For the same molecule, the mortality at 625 ppm ([10]; 625 PPM) was 100%, the mortality at 1250 ppm ([10]; 1250 PPM) was 100% and the mortality at 10 ppm ([11]; 10 PPM) was 0%. The mortality at 39 ppm ([11]; 39 PPM) was 100%, the mortality at 312 ppm ([12]; 312 PPM) was 0% and the mortality at 1250 ppm ([12]; 1250 PPM) was 89%. For the same molecule, the mortality at 10 ppm ([13]; 10 PPM) was 20%, the mortality at 39 ppm ([13]; 39 PPM) was 62% and the mortality at 156 ppm ([13]; 156 PPM) was 100%. The mortality at 1250 ppm ([13]; 1250 PPM) was 100%, the mortality at 312 ppm ([14]; 312 PPM) was 50% and the mortality at 625 ppm ([14]; 625 PPM) was 84%. For the same molecule, the mortality at 156 ppm ([15]; 156 PPM) was 0%, the mortality at 312 ppm ([15]; 312 PPM) was 6.3% and the mortality at 1250 ppm ([15]; 1250 PPM) was 100%. It also gave a mortality at 39 ppm ([16]; 39 PPM) of 0% and a mortality at 156 ppm ([16]; 156 PPM) of 75%.
